The results in this text go back to paper PMC5618672, “Rationally designed ligand‐independent peptide inhibitors of TREM‐1 ameliorate collagen‐induced arthritis” (Journal of Cellular and Molecular Medicine, 2017).

One experiment has as its system mice with CIA. Put plainly: Collagen‐induced arthritis (CIA) model, clinical arthritis score. The class given is in vivo, mouse (DBA/1). The conditions noted are these: 0.1 mg/kg, positive control; data not shown. The protocol:
(§1) Animal studies were performed by Bolder BioPATH (Boulder, CO, USA). CIA was induced in male 6‐ to 7‐week‐old DBA/1 mice by immunization with bovine type II collagen as previously described 19. Briefly, mice were injected intradermally with 100 μl of Freund's complete adjuvant containing 250 μg of bovine type II collagen (2 mg/ml final concentration) at the base of the tail on day 0 and again on day 21. On day 24, mice were randomized by body weight into treatment groups. At enrolment on day 24, the mean mouse weight was 20 g. Arthritis onset occurred on days 26‐38. Starting day 24, mice were injected intraperitoneally (i.p.) daily for 14 consecutive days with GF9 (2.5 and 25 mg/kg), GF9‐G (25 mg/kg), GF9‐dHDL (2.5 mg/kg), GF9‐sHDL (2.5 mg/kg), GA/E31‐dHDL (dose equivalent to 4 mg of GF9/kg), GA/E31‐sHDL (dose equivalent to 4 mg of GF9/kg) or with PBS. Mice were weighed on study days 24, 26, 28, 30, 32, 34, 36 and 38 (prior to necropsy). Daily clinical scores were given on a scale of 0–5 for each of the paws on days 24–38 using previously described criteria 19. On day 38, mice were killed for necropsy.

For another experiment, the system named is joints of mice with CIA. Put plainly: Histology assessment of joints in CIA. More on the design: dose or concentration left out as unconfirmed. It counts as in vivo, mouse (DBA/1). The protocol: as §1, with “([…]),” for “(i.p.) daily for 14 consecutive days with GF9 (2.5 and 25 mg/kg), GF9‐G (25 mg/kg), GF9‐dHDL (2.5 mg/kg),”, “([…]),” for “(dose equivalent to 4 mg of GF9/kg),”, “([…])” for “(dose equivalent to 4 mg of GF9/kg)”, “On day 38, mice were killed for necropsy.” left out
At the end of study, fore paws, hind paws and knees were harvested, fixed in 10% neutral buffered formalin for 1–2 days, and then decalcified in 5% formic acid for 4–5 days before standard processing for paraffin embedding. […] The joints were then assessed using 0–5 scale for inflammation, pannus formation, cartilage damage, bone resorption and periosteal new bone formation as previously reported 19. A summed histopathology score (sum of five parameters, 0–25 scale) was also determined.

In the case of `C[C@@H]1C[C@H]2[C@@H]3CCC4=CC(=O)C=C[C@]4(C)[C@@]3(F)[C@@H](O)C[C@]2(C)[C@@]1(O)C(=O)CO` [dexamethasone], the “anti‐arthritic effect relative to GF9 at 25 mg/kg” value in the experiment on mice with CIA is “comparable”. Besides, the “joint lesions (histopathology)” value in the experiment with joints of mice with CIA (arthritic mice, day 38, not shown) is listed as “No lesions were observed”. Besides, the “reduction of summed histopathology scores compared to vehicle‐treated mice” value with joints of mice with CIA (data not shown) was determined as 99%.
